Assay [1] deals with IL-1 β. The assay is described as follows: Ex-vivo human whole blood, LPS-induced IL-1β by ELISA. In kind it is cell-based. The note with it: LPS 1 ng/ml; for inhibition at 100 µM / inhibition at 10 µM: Homo sapiens. How it is done:
(§1) Blood was collected by venous puncture from 3 different volunteers in separate heparinized (100 IU/ml) tubes and incubated in the presence of 10 μM and 100 μM of test compounds for 1 hr at 37° C. Following this LPS (1 ng/ml final concentration) was added and incubation continued for 5 hr. The reaction was terminated by placing the samples on ice for 10 min. The samples were then centrifuged, plasma separated and stored at −70° C. until the analysis of TNF-α and IL-1β by ELISA: […]
On the technique in general: In an ELISA, binding on a coated surface is turned into a signal by an enzyme label.

In assay [2] the test system is TNF α. In words: Ex-vivo human whole blood, LPS-induced TNF-α by ELISA. In kind it is cell-based. The following applies: LPS 1 ng/ml; for inhibition at 10 µM / inhibition at 100 µM: Homo sapiens. Here is the method:
as §1

For assay [3], the system named is TNF α. In words: In vivo LPS induced TNF α inhibition in Balb/c mice. The following applies: 10 mg/kg orally, 30 minutes prior to i.v. LPS (50 μg/kg); blood 60 minutes after LPS. Here is the method:
Balb/c mice were kept for acclimatization in the observation room for two days before the experiment. On the day of the experiment, animals were weighed and the test compounds to be administered calculated at a 10 mg/kg body weight basis in a total volume of 2 ml. Control groups received vehicle alone while the treatment groups received the test compound, both given orally, 30 minutes prior to intravenous injection of LPS (50 μg/kg). Blood was collected 60 minutes after the LPS injection from retro orbital plexus, the serum separated & stored in deep freeze till the estimation of TNF by ELISA method.

The target of assay [4] is p38 MAP kinase (Homo sapiens, UniProt Q16539). The assay is described as follows: p-38 MAPK Enzyme assay (in vitro ELISA, ATF-2 substrate). The following applies: ELISA detection of phosphorylated ATF-2. Type of assay: biochemical. The source says:
The compounds were screened using an in vitro ELISA assay for p38 MAP kinase activity. Activated p38 MAP kinase during the course of its biological function phosphorylates its substrates. The assay was based on the detection of a phosphorylated p38 MAP kinase substrate using ATF-2 as the biological substrate. More the activity of the p38 MAP kinase inhibitor in the reaction mixture less will be the amount of active p38 MAP kinase available to phosphorylate ATF-2. So, lower OD value will indicate the higher inhibition of p38 MAP kinase by the specific p38 MAP kinase inhibitor. The quantitation of phosphorylated ATF-2 at varying concentrations of p38 MAP kinase inhibitor was used to determine the IC50 by fitting the results to a logistic dose-response program (Graphpad Prism, CA). IC50 was defined as the concentration of compound required to achieve 50% inhibition of p38 MAP kinase activity.

In general, inhibition refers to the change of the read-out against control, counted positive when it falls. The term IC50 denotes the concentration needed to halve the response being measured.

Chain of p38 MAP kinase (Q16539 whole entry): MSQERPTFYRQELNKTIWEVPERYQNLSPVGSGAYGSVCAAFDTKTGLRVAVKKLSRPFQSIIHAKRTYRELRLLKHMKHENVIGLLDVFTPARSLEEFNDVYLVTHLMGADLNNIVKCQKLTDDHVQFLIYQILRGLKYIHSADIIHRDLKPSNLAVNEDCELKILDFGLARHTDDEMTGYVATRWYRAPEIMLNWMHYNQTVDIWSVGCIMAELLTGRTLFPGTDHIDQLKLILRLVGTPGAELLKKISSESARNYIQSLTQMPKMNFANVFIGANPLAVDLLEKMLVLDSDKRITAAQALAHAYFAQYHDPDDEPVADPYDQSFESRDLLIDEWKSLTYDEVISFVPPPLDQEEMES

As to `CCc1nc(-c2ccc(F)cc2)c(-c2ccnc(N=S(C)(=O)c3cccc(C)c3)c2)s1` (stereo not drawn) [Example 46, S-Methyl-S-3-methylphenyl-N-[4-(2-ethyl-4-fluorophenyl-thiazol-5-yl)-pyridine]-sulfoximine], the “IL-1 β % inhibition” value in assay [1] (Conc 10 μM) came out at 73.3%; in assay [1] (Conc 100 μM), 95.8%. Also, the “TNF α % inhibition” value is 40.9% in assay [2] (Conc 10 μM) and 90.1% in assay [2] (Conc 100 μM). The “In vivo LPS induced TNF α inhibition in Balb/c mice TNF α % inhibition (10 mg/kg)” value in assay [3] was determined as 56.80%.

`CCc1nc(-c2ccc(F)cc2)c(-c2ccnc(N=S(C)(=O)c3ccc(F)cc3)c2)s1` (single isomer, unassigned; (-)) [Example 43, (−)-S-Methyl-S-4-fluoro-phenyl-N-[4-(2-ethyl-4-(4-fluoro-phenyl)-1,3-thiazol-5-yl)-pyridine-2-yl]-sulfoximine]: the “IL-1 β % inhibition” value in assay [1] (Conc 10 μM) was found to be 24.62%. The inhibition at 100 µM in assay [1] (Conc 100 μM) is 79.3%. For the same molecule, the 50% inhibitory concentration (IC50) in assay [4] came out at 71 µM. Further, the “TNF α % inhibition” value in assay [2] (Conc 100 μM) is reported as 55.14%. Further, the inhibition at 10 µM in assay [2] (Conc 10 μM) was 17.8%. The “In vivo LPS induced TNF α inhibition in Balb/c mice TNF α % inhibition (10 mg/kg)” value in assay [3] is given as 49.4%.

For the molecule `CCc1nc(-c2ccc(F)cc2)c(-c2ccnc(N=S(C)(=O)c3cccc(F)c3)c2)s1` (stereo not drawn) [Example 47, S-Methyl-S-3-fluorophenyl-N-[4-{2-ethyl-4-(4-fluorophenyl)-thiazol-5-yl}-pyridine-2-yl]-sulfoximine], the values for the inhibition at 10 µM in assay [1] (Conc 10 μM) and in assay [2] (Conc 10 μM) were 78.1% and 24.4%, respectively. Besides, the inhibition at 100 µM was determined as 98.5% in assay [1] (Conc 100 μM) and 89.6% in assay [2] (Conc 100 μM). The “In vivo LPS induced TNF α inhibition in Balb/c mice TNF α % inhibition (10 mg/kg)” value in assay [3] is reported as 48.60%.

On to `CCc1nc(-c2ccc(F)cc2)c(-c2ccnc(N=S(C)(=O)c3ccc(F)cc3)c2)s1` (single isomer, unassigned; (+)) [Example 44, (+)-S-Methyl-S-4-fluoro-phenyl-N-[4-(2-ethyl-4-(4-fluoro-phenyl)-1,3-thiazol-5-yl)-pyridine-2-yl]-sulfoximine], for which the figures for the “IL-1 β % inhibition” value in assay [1] (Conc 10 μM) and in assay [1] (Conc 100 μM) were 64.82% and 92.36%, respectively. Moreover, in assay [4], the IC50 came to 6.6 µM. Further, the “TNF α % inhibition” value was 32.74% in assay [2] (Conc 10 μM) and 95.59% in assay [2] (Conc 100 μM). Besides, the “In vivo LPS induced TNF α inhibition in Balb/c mice TNF α % inhibition (10 mg/kg)” value in assay [3] turned out to be 50.4%.

As to `CCc1nc(-c2ccc(F)c(F)c2)c(-c2ccnc(N=S(=O)(c3ccccc3)C(C)C)c2)s1` (stereo not drawn) [Example 60, S-Isopropyl-S-phenyl-N-{4-[2-ethyl-4-(3,4-difluorophenyl)-thiazol-5-yl]-pyridin-2-yl}-sulfoximine], the inhibition at 10 µM in assay [1] (Conc 10 μM) was determined as 35.2%; in assay [2] (Conc 10 μM), 36.7%. Moreover, the inhibition at 100 µM worked out at 84.5% in assay [1] (Conc 100 μM) and 81.7% in assay [2] (Conc 100 μM). This molecule also showed an IC50 in assay [4] of 11.8 µM. In addition, the “In vivo LPS induced TNF α inhibition in Balb/c mice TNF α % inhibition (10 mg/kg)” value in assay [3] was 53.65%.

In turn, `CCCCS(=O)(CCCC)=Nc1cc(-c2sc(CC)nc2-c2cccc(C)c2)ccn1` [Example 16, Di-n-butyl-N-[4-(2-ethyl-4-(3-methylphenyl)-1,3-thiazol-5-yl)-pyridine-2-yl]-sulfoximine] came in with an IC50 in assay [4] of 1.9 µM.

For the molecule `CCc1nc(-c2ccccc2)c(-c2ccnc(N=S(C)(=O)c3cccc(F)c3)c2)s1` (stereo not drawn) [Example 25, S-Methyl-S-(3-fluorophenyl)-N-[4-{2-ethyl-4-phenyl-thiazol-5-yl}-pyridine]-sulfoximine], the “IL-1 β % inhibition” value is reported as 38.5% in assay [1] (Conc 10 μM) and 79.4% in assay [1] (Conc 100 μM). The “TNF α % inhibition” value in assay [2] (Conc 10 μM) is on record as 15.39%; in assay [2] (Conc 100 μM) it was 64.06%. The “In vivo LPS induced TNF α inhibition in Balb/c mice TNF α % inhibition (10 mg/kg)” value in assay [3] is 59.6%.

In turn, `CCc1nc(-c2ccc(F)cc2)c(-c2ccnc(N=S(=O)(c3ccccc3)C3CCCC3)c2)s1` (stereo not drawn) [Example 42, S-Cyclopentyl-S-Phenyl-N-[4-(2-ethyl-4-(4-fluorophenyl)-1,3-thiazol-5-yl)-pyridine-2-yl]-sulfoximine] displayed an IC50 in assay [4] of 7.1 µM.

For `CCc1nc(-c2ccc(F)cc2)c(-c2ccnc(N=S(C)(=O)c3ccccc3)c2)s1` (single isomer, unassigned; (-)) [Example 33, (−)-S-Methyl-S-phenyl-N-{-4-[2-ethyl-4-(4-fluoro-phenyl)-thiazol-5-yl]-pyridin-2-yl}-sulfoximine], it took 3.9 µM to reach half-maximal inhibition in assay [4] (IC50). This IC50 lies about 1.8-fold lower than the previous one.

The molecule `CCc1nc(-c2cccc(C)c2)c(-c2ccnc(N=S(C)(=O)c3ccc(C)cc3)c2)s1` (stereo not drawn) [Example 15, S-Methyl-S-4-methylphenyl-N-[4-(2-ethyl-4-(3-methylphenyl)-1,3-thiazol-5-yl)-pyridine-2-yl]-sulfoximine] showed an IC50 in assay [4] of 4.9 µM. The IC50 values of the last two molecules are within 1.5-fold of each other.

Molecule `CCc1nc(-c2ccc(F)c(F)c2)c(-c2ccnc(N=S(C)(=O)c3ccccc3)c2)s1` (stereo not drawn) [Example 58, S-Methyl-S-phenyl-N-{4-[2-ethyl-4-(3,4-difluorophenyl)-thiazol-5-yl]pyridin-2-yl}-sulfoximine] returned an IC50 in assay [4] of 1 µM. This IC50 is about 4.9-fold lower than that of the molecule before.

On to `CCc1nc(-c2ccc(F)cc2)c(-c2ccnc(N=S(=O)(c3ccccc3)C(C)C)c2)s1` (single isomer, unassigned; (+)) [Example 37, (+)-S-Isopropyl-S-phenyl-N-{4-[2-ethyl-4-(4-fluoro-phenyl)-thiazol-5-yl]-pyridin-2-yl}-sulfoximine], for which the IC50 in assay [4] came to 5.93 µM.

With `CCc1nc(-c2ccc(F)cc2)c(-c2ccnc(N=S(=O)(c3ccccc3)c3ccccc3)c2)s1` [Example 45, S,S-Diphenyl-N-[4-(2-ethyl-4-(4-fluorophenyl)-thiazol-5-yl)-pyridin-2-yl]-sulfoximine], in assay [4], half-maximal inhibition (IC50) required 1.35 µM.

With `CCc1nc(-c2ccc(F)cc2)c(-c2ccnc(N=S(=O)(c3ccccc3)C(C)C)c2)s1` (single isomer, unassigned; (-)) [Example 36, (−)-Isopropyl-S-phenyl-N-{4-[2-ethyl-4-(4-fluoro-phenyl)-thiazol-5-yl]-pyridin-2-yl}-sulfoximine], the inhibition at 10 µM in assay [1] (Conc 10 μM) was determined as 38.9%; in assay [2] (Conc 10 μM), 34.3%. In addition, the inhibition at 100 µM in assay [1] (Conc 100 μM) was 96.3%; in assay [2] (Conc 100 μM), 97.7%. The molecule further showed an IC50 in assay [4] of 13.4 µM. The “In vivo LPS induced TNF α inhibition in Balb/c mice TNF α % inhibition (10 mg/kg)” value in assay [3] was determined as 43.3%.

`CCc1nc(-c2ccccc2)c(-c2ccnc(N=S(C)(=O)c3ccccc3)c2)s1` (single isomer, unassigned; (+)) [Example 21] displayed an IC50 in assay [4] of 2.7 µM.

In turn, `CCc1nc(-c2cccc(C)c2)c(-c2ccnc(N=S(C)(=O)c3ccc(OC)cc3)c2)s1` (stereo not drawn) [Example 3, S-Methyl-S-4-methoxyphenyl-N-[4-(2-ethyl-4-m-tolyl-thiazol-5-yl)-pyridine-2-yl]-sulfoximine] displayed an IC50 in assay [4] of 1.1 µM.

As to `CCc1nc(-c2ccccc2)c(-c2ccnc(N=S(C)(=O)c3cccc(C)c3)c2)s1` (stereo not drawn) [Example 24, S-Methyl-S-(3-Methylphenyl)-N-[4-{2-ethyl-4-phenyl-thiazol-5-yl}-pyridine]-sulfoximine], the results for the inhibition at 10 µM in assay [1] (Conc 10 μM) and in assay [2] (Conc 10 μM) were 22.7% and 7.43%, respectively. Moreover, the inhibition at 100 µM in assay [1] (Conc 100 μM) is 81.2%; in assay [2] (Conc 100 μM) it was 69.7%. The molecule further had a 50% inhibitory concentration (IC50) in assay [4] of 9.8 µM. In addition, the “In vivo LPS induced TNF α inhibition in Balb/c mice TNF α % inhibition (10 mg/kg)” value in assay [3] was found to be 39.3%.

As for `CCc1nc(-c2ccccc2)c(-c2ccnc(N=S(=O)(c3ccccc3)C(C)C)c2)s1` (stereo not drawn) [Example 22], the IC50 in assay [4] turned out to be 5.01 µM.

In assay [4], `CCc1nc(-c2ccc(F)cc2)c(-c2ccnc(N=S(C)(=O)c3ccc(F)cc3)c2)s1` (stereo not drawn) [Example 41, S-Methyl-S-4-fluoro-phenyl-N-[4-(2-ethyl-4-(4-fluoro-phenyl)-1,3-thiazol-5-yl)-pyridine-2-yl]-sulfoximine] yielded a half-inhibitory concentration (IC50) of 1.4 µM.

In assay [4], `CCc1nc(-c2cccc(C)c2)c(-c2ccnc(N=S(C)(=O)c3ccccc3)c2)s1` (stereo not drawn) [Example 4, S-Methyl-S-phenyl-N-[4-(2-ethyl-4-(3-methylphenyl)-1,3-thiazol-5-yl)-pyridine-2-yl]-sulfoximine] showed a half-maximal inhibitory concentration (IC50) of 1.12 µM.

These data come from patent US20100240709A1, “Sulfoximine Derivatives as p38 MAP Kinase Inhibitors” (priority 2005, published 2010).
